From US12723063B2, “GIPR-agonist compounds” (Eli Lilly and Company, priority 2019, dated 2026) come the findings set out here.

*1 amine or outer side, *2 acyl side, *3 side chain or, on linkers, in order; H or OH if unused. Where a SMILES comes first, the peptide text is derived from it. Side-chain parts run from the residue outwards. [ ]: non-standard residue; d: D form. The star is where a group is joined. C20 diacid = O=C(O)CCCCCCCCCCCCCCCCCCC(=O)*; αMePhe(2-F) = C[C@](N)(Cc1ccccc1F)C(=O)O; γGlu = O=C(O)[C@H](CCC(=O)[*:2])N[*:1]; αMeF = C[C@](N)(Cc1ccccc1)C(=O)O; 4Pal = N[C@@H](Cc1ccncc1)C(=O)O; αMeL = CC(C)C[C@](C)(N)C(=O)O; AEEA = NCCOCCOCC(=O)O; Aib = CC(C)(N)C(=O)O

The target of one test is T1, human GIPR (Homo sapiens, UniProt P48546).
T1 construct: expressed in transfected cells; crude membranes
T1 sequence (P48546 22-466): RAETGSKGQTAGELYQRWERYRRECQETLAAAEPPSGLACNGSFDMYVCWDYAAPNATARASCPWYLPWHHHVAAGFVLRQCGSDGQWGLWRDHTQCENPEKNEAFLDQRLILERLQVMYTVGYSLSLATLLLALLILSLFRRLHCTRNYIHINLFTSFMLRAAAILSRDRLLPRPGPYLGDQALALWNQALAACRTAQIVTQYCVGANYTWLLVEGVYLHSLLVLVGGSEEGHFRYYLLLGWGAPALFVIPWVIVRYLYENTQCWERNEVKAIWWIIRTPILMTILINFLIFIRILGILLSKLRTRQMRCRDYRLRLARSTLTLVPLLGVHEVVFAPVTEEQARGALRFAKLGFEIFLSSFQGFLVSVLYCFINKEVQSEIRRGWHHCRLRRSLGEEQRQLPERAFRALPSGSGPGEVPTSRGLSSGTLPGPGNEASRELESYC
Description: [125I]-GIP binding, SPA with WGA beads, 0.1% bacitracin. As to conditions: geometric mean, read-out: hGIPR Ki. An outline of the steps: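 Ki values are geometric means (SEM, n independent days), derived from four-parameter nonlinear regression of IC50. Membranes came from hGIPR-expressing CHO cells.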

In the next test the target is T2, human GcgR (Homo sapiens, UniProt P47871).
T2 construct: expressed in transfected cells; crude membranes
In words: [125I]-Glucagon binding, SPA with WGA beads, 0.1% bacitracin. The following applies: geometric mean, read-out: hGcgR Ki. In outline:
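SPA competition binding with WGA beads on crude membranes from HEK293 cells stably expressing hGcgR. Buffer: 25 mM HEPES pH 7.4, 2.5 mM CaCl2, 1 mM MgCl2, 0.1% bacitracin, 0.003% Tween-20; 10-point 3-fold dilutions, NSB with 1 μM Gcg.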

T2 sequence (P47871 26-477): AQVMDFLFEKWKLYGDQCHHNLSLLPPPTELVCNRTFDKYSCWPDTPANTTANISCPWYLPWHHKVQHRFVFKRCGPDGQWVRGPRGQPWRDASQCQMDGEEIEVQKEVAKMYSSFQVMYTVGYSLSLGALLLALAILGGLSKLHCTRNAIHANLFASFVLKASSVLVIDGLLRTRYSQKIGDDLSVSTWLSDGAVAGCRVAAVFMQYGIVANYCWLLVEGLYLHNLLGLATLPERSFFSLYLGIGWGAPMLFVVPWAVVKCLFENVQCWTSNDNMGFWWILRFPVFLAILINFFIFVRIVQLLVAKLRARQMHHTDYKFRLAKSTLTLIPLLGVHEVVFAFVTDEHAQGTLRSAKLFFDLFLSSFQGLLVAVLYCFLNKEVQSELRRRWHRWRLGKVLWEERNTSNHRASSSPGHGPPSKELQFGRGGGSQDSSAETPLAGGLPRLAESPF

As a reminder, the Ki is a dissociation constant, usually derived from enzyme kinetics or from competition with a known ligand. For `CC[C@H](C)[C@H](NC(=O)[C@H](Cc1ccccc1)NC(=O)[C@@H](NC(=O)CNC(=O)[C@H](CCC(=O)O)NC(=O)C(C)(C)NC(=O)[C@@H](N)Cc1ccc(O)cc1)[C@@H](C)O)C(=O)N[C@@H](CO)C(=O)N[C@@H](CC(=O)O)C(=O)N[C@@H](Cc1ccc(O)cc1)C(=O)N[C@@H](CO)C(=O)N[C@H](C(=O)N[C@@](C)(CC(C)C)C(=O)N[C@@H](CC(C)C)C(=O)N[C@@H](CC(=O)O)C(=O)N[C@@H](CCCCN)C(=O)N[C@@H](CCCCNC(=O)COCCOCCNC(=O)COCCOCCNC(=O)CC[C@H](NC(=O)CCCCCCCCCCCCCCCCCCC(=O)O)C(=O)O)C(=O)N[C@@H](Cc1c[nH]cn1)C(=O)N[C@@H](CCC(N)=O)C(=O)NC(C)(C)C(=O)N[C@@H](CC(=O)O)C(=O)N[C@@](C)(Cc1ccccc1)C(=O)N[C@H](C(=O)N[C@@H](CCC(=O)O)C(=O)N[C@@H](Cc1ccncc1)C(=O)N[C@@H](CC(C)C)C(=O)N[C@@H](CC(C)C)C(=O)N[C@@H](C)C(=O)NCC(=O)NCC(=O)N1CCC[C@H]1C(=O)N[C@@H](CO)C(=O)N[C@@H](CO)C(=O)NCC(=O)N[C@@H](C)C(=O)N1CCC[C@H]1C(=O)N1CCC[C@H]1C(=O)N1CCC[C@H]1C(=O)N[C@@H](CO)C(N)=O)C(C)C)[C@@H](C)CC` [Example 56], the Ki on human GIPR was 0.0487 nM; at human GcgR, 193 nM.
In the same order, the values of `CC[C@H](C)[C@H](NC(=O)[C@H](CO)NC(=O)[C@H](Cc1ccc(O)cc1)NC(=O)[C@H](CC(=O)O)NC(=O)[C@H](CO)NC(=O)[C@@H](NC(=O)[C@](C)(Cc1ccccc1F)NC(=O)[C@@H](NC(=O)CNC(=O)[C@H](CCC(=O)O)NC(=O)C(C)(C)NC(=O)[C@@H](N)Cc1ccc(O)cc1)[C@@H](C)O)[C@@H](C)CC)C(=O)N[C@@H](C)C(=O)N[C@@H](CC(C)C)C(=O)N[C@@H](CC(=O)O)C(=O)N[C@@H](CCCCN)C(=O)N[C@@H](CCCCNC(=O)COCCOCCNC(=O)COCCOCCNC(=O)CC[C@H](NC(=O)CCCCCCCCCCCCCCCCCCC(=O)O)C(=O)O)C(=O)N[C@@H](Cc1c[nH]cn1)C(=O)N[C@@H](CCC(N)=O)C(=O)NC(C)(C)C(=O)N[C@@H](CC(=O)O)C(=O)N[C@@H](Cc1ccccc1)C(=O)N[C@H](C(=O)N[C@@H](CCC(=O)O)C(=O)N[C@@H](Cc1ccncc1)C(=O)N[C@@H](CC(C)C)C(=O)N[C@@H](CC(C)C)C(=O)N[C@@H](CCC(=O)O)C(=O)NCC(=O)NCC(=O)N1CCC[C@H]1C(=O)N[C@@H](CO)C(=O)N[C@@H](CO)C(=O)NCC(=O)N[C@@H](C)C(=O)N1CCC[C@H]1C(=O)N1CCC[C@H]1C(=O)N1CCC[C@H]1C(=O)N[C@@H](CO)C(N)=O)C(C)C` [Example 39] (H-Y[Aib]EGT[αMePhe(2-F)]ISDYSIALDKK([AEEA-AEEA-γGlu-C20 diacid])HQ[Aib]DFVE[4Pal]LLEGGPSSGAPPPS-NH2) are 0.0444 nM and 76 nM.
For `CC[C@H](C)[C@H](NC(=O)[C@H](CO)NC(=O)[C@H](Cc1ccc(O)cc1)NC(=O)[C@H](CC(=O)O)NC(=O)[C@H](CO)NC(=O)[C@@H](NC(=O)[C@](C)(Cc1ccccc1)NC(=O)[C@@H](NC(=O)CNC(=O)[C@H](CCC(=O)O)NC(=O)C(C)(C)NC(=O)[C@@H](N)Cc1ccc(O)cc1)[C@@H](C)O)[C@@H](C)CC)C(=O)N[C@@](C)(CC(C)C)C(=O)N[C@@H](CC(C)C)C(=O)N[C@@H](CC(=O)O)C(=O)N[C@@H](CCCCN)C(=O)N[C@@H](CCCCNC(=O)COCCOCCNC(=O)COCCOCCNC(=O)CC[C@H](NC(=O)CCCCCCCCCCCCCCCCCCC(=O)O)C(=O)O)C(=O)N[C@@H](Cc1c[nH]cn1)C(=O)N[C@@H](CCC(N)=O)C(=O)NC(C)(C)C(=O)N[C@@H](CCC(=O)O)C(=O)N[C@@H](Cc1ccccc1)C(=O)N[C@H](C(=O)N[C@@H](CCC(=O)O)C(=O)N[C@@H](Cc1ccncc1)C(=O)N[C@@H](CC(C)C)C(=O)N[C@@H](CC(C)C)C(=O)N[C@@H](C)C(=O)N[C@@H](C)C(=O)NCC(=O)N1CCC[C@H]1C(=O)N[C@@H](CO)C(=O)N[C@@H](CO)C(=O)NCC(=O)N[C@@H](C)C(=O)N1CCC[C@H]1C(=O)N1CCC[C@H]1C(=O)N1CCC[C@H]1C(=O)N[C@@H](CO)C(N)=O)C(C)C` [Example 62] (H-Y[Aib]EGT[αMeF]ISDYSI[αMeL]LDKK([AEEA-AEEA-γGlu-C20 diacid])HQ[Aib]EFVE[4Pal]LLAAGPSSGAPPPS-NH2), in that order: 0.0414 nM and 31.3 nM.
For the compound `CC[C@H](C)[C@H](NC(=O)[C@H](Cc1ccccc1)NC(=O)[C@@H](NC(=O)CNC(=O)[C@H](CCC(=O)O)NC(=O)C(C)(C)NC(=O)[C@@H](N)Cc1ccc(O)cc1)[C@@H](C)O)C(=O)N[C@@H](CO)C(=O)N[C@@H](CC(=O)O)C(=O)N[C@@H](Cc1ccc(O)cc1)C(=O)N[C@@H](CO)C(=O)N[C@H](C(=O)N[C@@](C)(CC(C)C)C(=O)N[C@@H](CC(C)C)C(=O)N[C@@H](CC(=O)O)C(=O)N[C@@H](CCCCN)C(=O)N[C@@H](CCCCNC(=O)COCCOCCNC(=O)COCCOCCNC(=O)CC[C@H](NC(=O)CCCCCCCCCCCCCCCCCCC(=O)O)C(=O)O)C(=O)N[C@@H](Cc1c[nH]cn1)C(=O)N[C@@H](CCC(N)=O)C(=O)NC(C)(C)C(=O)N[C@@H](CCC(=O)O)C(=O)N[C@@H](Cc1ccccc1)C(=O)N[C@H](C(=O)N[C@@H](CCC(=O)O)C(=O)N[C@@H](Cc1ccncc1)C(=O)N[C@@H](CC(C)C)C(=O)N[C@@H](CC(C)C)C(=O)N[C@@H](C)C(=O)N[C@H](C(=O)NCC(=O)N1CCC[C@H]1C(=O)N[C@@H](CO)C(=O)N[C@@H](CO)C(=O)NCC(=O)N[C@@H](C)C(=O)N1CCC[C@H]1C(=O)N1CCC[C@H]1C(=O)N1CCC[C@H]1C(=O)N[C@@H](CO)C(N)=O)[C@@H](C)O)C(C)C)[C@@H](C)CC` [Example 58] (H-Y[Aib]EGTFISDYSI[αMeL]LDKK([AEEA-AEEA-γGlu-C20 diacid])HQ[Aib]EFVE[4Pal]LLATGPSSGAPPPS-NH2), the Ki at human GIPR is 0.0324 nM; on human GcgR, 418 nM.
In the same order, the values of `CC[C@H](C)[C@H](NC(=O)[C@H](Cc1ccccc1)NC(=O)[C@@H](NC(=O)CNC(=O)[C@H](CCC(=O)O)NC(=O)C(C)(C)NC(=O)[C@@H](N)Cc1ccc(O)cc1)[C@@H](C)O)C(=O)N[C@@H](CO)C(=O)N[C@@H](CC(=O)O)C(=O)N[C@@H](Cc1ccc(O)cc1)C(=O)N[C@@H](CO)C(=O)N[C@H](C(=O)N[C@@](C)(CC(C)C)C(=O)N[C@@H](CC(C)C)C(=O)N[C@@H](CC(=O)O)C(=O)N[C@@H](CCCCN)C(=O)N[C@@H](CCCCNC(=O)COCCOCCNC(=O)COCCOCCNC(=O)CC[C@H](NC(=O)CCCCCCCCCCCCCCCCCCC(=O)O)C(=O)O)C(=O)N[C@@H](Cc1c[nH]cn1)C(=O)N[C@@H](CCC(N)=O)C(=O)NC(C)(C)C(=O)N[C@@H](CC(=O)O)C(=O)N[C@@H](Cc1ccccc1)C(=O)N[C@H](C(=O)N[C@@H](CCC(=O)O)C(=O)N[C@@H](Cc1ccc(O)cc1)C(=O)N[C@@H](CC(C)C)C(=O)N[C@@H](CC(C)C)C(=O)N[C@@H](CCC(=O)O)C(=O)N[C@H](C(=O)NCC(=O)N1CCC[C@H]1C(=O)N[C@@H](CO)C(=O)N[C@@H](CO)C(=O)NCC(=O)N[C@@H](C)C(=O)N1CCC[C@H]1C(=O)N1CCC[C@H]1C(=O)N1CCC[C@H]1C(=O)N[C@@H](CO)C(N)=O)[C@@H](C)O)C(C)C)[C@@H](C)CC` [Example 66] (H-Y[Aib]EGTFISDYSI[αMeL]LDKK([AEEA-AEEA-γGlu-C20 diacid])HQ[Aib]DFVEYLLETGPSSGAPPPS-NH2) are 0.0866 nM and 279 nM.
